# From US20060275285A1, “Methods of inhibiting a GPCR” (Amgen Inc., priority 2005, published 2006)
# Key:
# GPR23 = experiment: GPR23-specific antisense oligos evaluated for activity in bEND cells; format: cell-based; conditions: bEND (murine brain endothelial) cells
# Procedure: GPR23-specific antisense oligos were generated by Isis Pharmaceuticals (Carlsbad, Calif.) and were evaluated for activity in bEND (murine brain endothelial) cells. […] An oligo without homology to any known gene was provided as a control ([…] (SEQ ID NO:10)). For the studies, male C57 black 6 mice were fed a high fat diet for 12 weeks (from 3 weeks of age) and analyzed for parameters of diet induced obesity. Animals that show appropriate symptoms of diet induced obesity (e.g., hyperinsulemia and weight gain with no signs of illness) were divided into 5 groups (10 animals/group) and treated as described below: […]
# GPR23 mRNA = GPR23 mRNA quantitation by real time PCR in white adipose tissue of diet induced obese mice; format: in vivo; conditions: Groups 3 and 4 (25 and 50 mg/kg IP weekly for 7 weeks) vs Group 2
# Procedure: (§1) GPR23-specific antisense oligos were generated by Isis Pharmaceuticals (Carlsbad, Calif.) and were evaluated for activity in bEND (murine brain endothelial) cells. […] An oligo without homology to any known gene was provided as a control ([…] (SEQ ID NO:10)). For the studies, male C57 black 6 mice were fed a high fat diet for 12 weeks (from 3 weeks of age) and analyzed for parameters of diet induced obesity. Animals that show appropriate symptoms of diet induced obesity (e.g., hyperinsulemia and weight gain with no signs of illness) were divided into 5 groups (10 animals/group) and treated as described below:
# (§2) Group 1 (saline treated control): saline IP injection weekly for 7 weeks;
# (§3) Group 2 (universal oligo control): oligo IP injection 50 mg/kg body weight, weekly for 7 weeks;
# (§4) Group 3 (GPR23 antisense oligo (ASO) treated): oligo IP injection, 25 mg/kg body weight, weekly for 7 weeks;
# (§5) Group 4 (GPR23 ASO treated): oligo IP injection, 50 mg/kg body weight, weekly for 7 weeks; and
# (§6) Group 5: (rosiglitizone treated control): 50 mg/kg body weight for 7 weeks.
# Fed glucose measurements were made at the beginning, midpoint and endpoint of the study. […] At the end of the study, animals were sacrificed and tissue samples (liver, white adipose tissue, brown adipose tissue) were taken for histological evaluation and GPR23 mRNA quantitation. […]
# [1] = test system: male C57 black 6 mice fed a high fat diet (diet induced obesity); experiment: GPR23 antisense study in diet induced obesity mice (body composition, serum parameters, liver); format: in vivo; conditions: for body weight: 50 mg/kg IP weekly for 7 weeks (Group 4) vs control animals
# Procedure: as §1, §2, §3, §4, §5, §6
# (§7) Fed glucose measurements were made at the beginning, midpoint and endpoint of the study. A fasting GTT measurement was done at the midpoint and endpoint of the study. Fed plasma samples were tested for insulin, total cholesterol, free fatty acids, triglycerides, and liver enzymes. At the end of the study, animals were sacrificed and tissue samples (liver, white adipose tissue, brown adipose tissue) were taken for histological evaluation and GPR23 mRNA quantitation.
# fatty acid synthase mRNA = experiment: Gene profiling by real time PCR of adipose tissue: fatty acid synthase; format: in vivo, mice; conditions: white adipose tissue; Groups 3 and 4 (25 and 50 mg/kg)
# Procedure: as §7
# (§8) Gene profiling experiments were performed to provide additional insight into the mechanism of action associated with GPR23.
# hormone sensitive lipase = experiment: Gene profiling by real time PCR of adipose tissue: hormone sensitive lipase; format: in vivo, mice; conditions: Groups 3 and 4 (25 and 50 mg/kg)
# Procedure: as §7, §8
# PPAR-gamma = experiment: Gene profiling by real time PCR of adipose tissue: PPAR-gamma; format: in vivo, mice; conditions: Groups 3 and 4 (25 and 50 mg/kg)
# Procedure: as §7, §8
# [2] = 50 mg/kg IP weekly for 7 weeks (Group 4) vs control oligo (Group 2)
# [3] = Groups 3 and 4 (25 and 50 mg/kg), not statistically significant, data not shown
sequence,measurement,setting,value
"CTCAGTATCATTAGCTTCAA (listed as DNA, chemistry not given here; listed as Mus musculus) [GPR23 antisense oligo]",expression of GPR23 in cultured cells,GPR23,markedly reduced
same,reduction of GPR23 mRNA levels relative to control oligo treated animals,GPR23 mRNA,~70%
same,body weight,[1],weighed slightly less than control animals
same,body weight,[1]; listed as antisense oligo,weighed less than control animals
same,fat mass,[1]; [2],statistically significant decrease
same,lean mass,[1]; [2],statistically significant increase
same,liver fat scores,[1]; Groups 3 and 4 (25 and 50 mg/kg),lower
same,liver enzymes (a parameter of toxicity),[1]; Groups 3 and 4 (25 and 50 mg/kg) compared to control groups (Groups 1 and 2),not significantly different
same,free fatty acid levels,[1]; [3],lower
same,triglyceride levels,[1]; [3],lower
same,serum cholesterol levels,"[1]; both 25 mg/kg and 50 mg/kg doses (Groups 3 and 4), change from baseline at week 7, relative to controls",lowered relative to controls
same,glucose tolerance tests,"[1]; fasting GTT, antisense oligo treatment",not affected
same,fatty acid synthase mRNA levels,fatty acid synthase mRNA,significantly reduced in a dose-dependent manner
same,levels of hormone sensitive lipase,hormone sensitive lipase,did not change significantly
same,levels of PPAR-gamma,PPAR-gamma,did not change significantly
